Results: patent publication US20200231638A1, “STABILIZED ANTI-MICROBIAL PEPTIDES” (priority 2015, published 2020)
Bridge positions count the residues as written; N and C are the ends. Square brackets hold non-standard residues; d marks the D form. Peptide text beside a SMILES is read from it. S5 = C=CCCC[C@](C)(N)C(=O)O; Nle = CCCC[C@H](N)C(=O)O

Columns and labels:
E. coli = format: cell-based, Escherichia coli
Experimental: (§1) Antimicrobial Activity Assay:
(§2) The following microbroth dilution protocol was adapted to determine the minimum inhibitory concentration (MIC) of each peptide. First, Mueller-Hinton broth (MHB) was passed through an anion exchange column to remove polyanionic species and generate refined MHB. […] Briefly, bacterial cells was grown overnight in refined MHB at 37° C. and then diluted and allowed to grow again for several hours. Serial dilutions of peptide stocks in water (10 μl) were prepared using clear round-bottom polypropylene 96-well plates. Then 90 μl of bacteria in refined MHB was added to give a final inoculum of 5×10^5 CFU/ml. The plates were then covered with porous tape to reduce evaporation, and incubated for 20-24 hours at 37° C. The MIC is the minimum peptide concentration at which no visible growth was observed.

B. cereus = format: cell-based, Bacillus cereus
Experimental: as §1, §2

human red blood cells = format: cell-based; settings: red cells of human, 1 h, 25
Experimental: FIG. 5 is a series of line graphs depicting the hemolytic activity of magainin II and stapled analogues. Peptides were incubated with 1% (v/v) human red blood cells in phosphate-buffered solution for 1 hour at 37° C. and then the supernatant was isolated and the amount of hemoglobin released was measured at 540 nm. % hemolysis was calculated relative to an untreated control.
Hemolytic Activity Assay:
For the determination of hemolytic activity, human blood samples were centrifuged to isolate red blood cells (RBCs), which are then washed and suspended in phosphate-buffered saline to yield a 1% (v/v) suspension. The suspension was then added to serial dilutions of peptide stocks in water in clear round-bottom polypropylene 96-well plates and the plates were incubated for 1 hour at 37° C. After incubation, the plates were centrifuged and the supernatant was isolated to determine the amount of hemoglobin released using a spectrophotometer (570 nm), according to the equation: % Hemolysis=(Treated Absorbance−Untreated Control Absorbance)/(1% Triton-X100 Treated Absorbance−Untreated Control Absorbance). The minimum hemolytic concentration (MHC) is the peptide concentration at which there is less than 1% hemoglobin release.

S. aureus = format: cell-based, Staphylococcus aureus
Experimental: as §1, §2

P. aeruginosa = format: cell-based, Pseudomonas aeruginosa
Experimental: as §1, §2

| SMILES | MIC E. coli (E. coli) | MIC B. cereus (B. cereus) | % Hemolysis at 25 μg/ml (human red blood cells) | MIC S. aureus (S. aureus) | MIC P. aeruginosa (P. aeruginosa) |
| --- | --- | --- | --- | --- | --- |
| CCCC[C@H](NC(=O)[C@@H](NC(=O)[C@H](CCC(=O)O)NC(=O)CNC(=O)[C@@H](NC(=O)[C@H](Cc1ccccc1)NC(=O)[C@H](C)NC(=O)[C@]1(C)CCCC=CCCC[C@](C)(NC(=O)[C@H](C)NC(=O)[C@H](CO)NC(=O)[C@H](Cc2c[nH]cn2)NC(=O)[C@H](CC(C)C)NC(=O)[C@H](Cc2ccccc2)NC(=O)[C@H](CCCCN)NC(=O)CNC(=O)[C@@H](NC(=O)CN)[C@@H](C)CC)C(=O)N[C@@H](CCCCN)C(=O)N[C@@H](Cc2ccccc2)C(=O)NCC(=O)N1)C(C)C)[C@@H](C)CC)C(=O)N[C@@H](CC(N)=O)C(=O)N[C@@H](CO)C(N)=O [Mag(i + 4)9] (H-GIGKFLHSA[S5]KFG[S5]AFVGEI[Nle]NS-NH2; staple 10-14) | 6.2 µg/mL | 12.5 µg/mL | 66.9% | >50 µg/mL | >50 µg/mL |
| CCCC[C@H](NC(=O)[C@@H](NC(=O)[C@H](CCC(=O)O)NC(=O)CNC(=O)[C@@H](NC(=O)[C@H](Cc1ccccc1)NC(=O)[C@]1(C)CCCC=CCCC[C@](C)(NC(=O)[C@H](CCCCN)NC(=O)[C@H](C)NC(=O)[C@H](CO)NC(=O)[C@H](Cc2c[nH]cn2)NC(=O)[C@H](CC(C)C)NC(=O)[C@H](Cc2ccccc2)NC(=O)[C@H](CCCCN)NC(=O)CNC(=O)[C@@H](NC(=O)CN)[C@@H](C)CC)C(=O)N[C@@H](Cc2ccccc2)C(=O)NCC(=O)N[C@@H](CCCCN)C(=O)N1)C(C)C)[C@@H](C)CC)C(=O)N[C@@H](CC(N)=O)C(=O)N[C@@H](CO)C(N)=O [Mag(i + 4)10] (H-GIGKFLHSAK[S5]FGK[S5]FVGEI[Nle]NS-NH2; staple 11-15) | 3.1 µg/mL | 6.2 µg/mL | 23.6% | 6.2 µg/mL | 12.5 µg/mL |
| CCCC[C@H](NC(=O)[C@@H](NC(=O)[C@H](CCC(=O)O)NC(=O)CNC(=O)[C@@H](NC(=O)[C@]1(C)CCCC=CCCC[C@](C)(NC(=O)[C@H](CCCCN)NC(=O)[C@H](CCCCN)NC(=O)[C@H](C)NC(=O)[C@H](CO)NC(=O)[C@H](Cc2c[nH]cn2)NC(=O)[C@H](CC(C)C)NC(=O)[C@H](Cc2ccccc2)NC(=O)[C@H](CCCCN)NC(=O)CNC(=O)[C@@H](NC(=O)CN)[C@@H](C)CC)C(=O)NCC(=O)N[C@@H](CCCCN)C(=O)N[C@@H](C)C(=O)N1)C(C)C)[C@@H](C)CC)C(=O)N[C@@H](CC(N)=O)C(=O)N[C@@H](CO)C(N)=O [Mag(i + 4)11] (H-GIGKFLHSAKK[S5]GKA[S5]VGEI[Nle]NS-NH2; staple 12-16) | 3.1 µg/mL | 6.2 µg/mL | 17.5% | 12.5 µg/mL | 6.2 µg/mL |
| CCCC[C@H](NC(=O)[C@@H](NC(=O)[C@H](CCC(=O)O)NC(=O)CNC(=O)[C@]1(C)CCCC=CCCC[C@](C)(NC(=O)[C@H](Cc2ccccc2)NC(=O)[C@H](CCCCN)NC(=O)[C@H](CCCCN)NC(=O)[C@H](C)NC(=O)[C@H](CO)NC(=O)[C@H](Cc2c[nH]cn2)NC(=O)[C@H](CC(C)C)NC(=O)[C@H](Cc2ccccc2)NC(=O)[C@H](CCCCN)NC(=O)CNC(=O)[C@@H](NC(=O)CN)[C@@H](C)CC)C(=O)N[C@@H](CCCCN)C(=O)N[C@@H](C)C(=O)N[C@@H](Cc2ccccc2)C(=O)N1)[C@@H](C)CC)C(=O)N[C@@H](CC(N)=O)C(=O)N[C@@H](CO)C(N)=O [Mag(i + 4)12] (H-GIGKFLHSAKKF[S5]KAF[S5]GEI[Nle]NS-NH2; staple 13-17) | 3.1 µg/mL | 3.1 µg/mL | 76.8% | 6.2 µg/mL | 3.1 µg/mL |
| CCCC[C@H](NC(=O)[C@@H](NC(=O)[C@H](CCC(=O)O)NC(=O)[C@]1(C)CCCC=CCCC[C@](C)(NC(=O)CNC(=O)[C@H](Cc2ccccc2)NC(=O)[C@H](CCCCN)NC(=O)[C@H](CCCCN)NC(=O)[C@H](C)NC(=O)[C@H](CO)NC(=O)[C@H](Cc2c[nH]cn2)NC(=O)[C@H](CC(C)C)NC(=O)[C@H](Cc2ccccc2)NC(=O)[C@H](CCCCN)NC(=O)CNC(=O)[C@@H](NC(=O)CN)[C@@H](C)CC)C(=O)N[C@@H](C)C(=O)N[C@@H](Cc2ccccc2)C(=O)N[C@@H](C(C)C)C(=O)N1)[C@@H](C)CC)C(=O)N[C@@H](CC(N)=O)C(=O)N[C@@H](CO)C(N)=O [Mag(i + 4)13] (H-GIGKFLHSAKKFG[S5]AFV[S5]EI[Nle]NS-NH2; staple 14-18) | 3.1 µg/mL | 3.1 µg/mL | 59.7% | 6.2 µg/mL | 6.2 µg/mL |
| CCCC[C@H](NC(=O)[C@@H](NC(=O)[C@]1(C)CCCC=CCCC[C@](C)(NC(=O)[C@H](CCCCN)NC(=O)CNC(=O)[C@H](Cc2ccccc2)NC(=O)[C@H](CCCCN)NC(=O)[C@H](CCCCN)NC(=O)[C@H](C)NC(=O)[C@H](CO)NC(=O)[C@H](Cc2c[nH]cn2)NC(=O)[C@H](CC(C)C)NC(=O)[C@H](Cc2ccccc2)NC(=O)[C@H](CCCCN)NC(=O)CNC(=O)[C@@H](NC(=O)CN)[C@@H](C)CC)C(=O)N[C@@H](Cc2ccccc2)C(=O)N[C@@H](C(C)C)C(=O)NCC(=O)N1)[C@@H](C)CC)C(=O)N[C@@H](CC(N)=O)C(=O)N[C@@H](CO)C(N)=O [Mag(i + 4)14] (H-GIGKFLHSAKKFGK[S5]FVG[S5]I[Nle]NS-NH2; staple 15-19) | 1.6 µg/mL | 3.1 µg/mL | 92.1% | 3.1 µg/mL | 3.1 µg/mL |
| CCCC[C@H](NC(=O)[C@]1(C)CCCC=CCCC[C@](C)(NC(=O)[C@H](C)NC(=O)[C@H](CCCCN)NC(=O)CNC(=O)[C@H](Cc2ccccc2)NC(=O)[C@H](CCCCN)NC(=O)[C@H](CCCCN)NC(=O)[C@H](CCC(=O)O)NC(=O)[C@H](CO)NC(=O)[C@H](Cc2c[nH]cn2)NC(=O)[C@H](CC(C)C)NC(=O)[C@H](Cc2ccccc2)NC(=O)[C@H](CCCCN)NC(=O)CNC(=O)[C@@H](NC(=O)CN)[C@@H](C)CC)C(=O)N[C@@H](C(C)C)C(=O)NCC(=O)N[C@@H](CCC(=O)O)C(=O)N1)C(=O)N[C@@H](CC(N)=O)C(=O)N[C@@H](CO)C(N)=O [Mag(i + 4)15(A9E), GIGKFLHSEKKFGKAXVGEXBNS] (H-GIGKFLHSEKKFGKA[S5]VGE[S5][Nle]NS-NH2; staple 16-20) | 50 µg/mL | >50 µg/mL | 0.6% | >50 µg/mL | >50 µg/mL |
| CCCC[C@H](NC(=O)[C@]1(C)CCCC=CCCC[C@](C)(NC(=O)[C@H](C)NC(=O)[C@H](CCCCN)NC(=O)CNC(=O)[C@H](Cc2ccccc2)NC(=O)[C@H](CCCCN)NC(=O)[C@H](CCCCN)NC(=O)[C@H](CCCCN)NC(=O)[C@H](CO)NC(=O)[C@H](Cc2c[nH]cn2)NC(=O)[C@H](CC(C)C)NC(=O)[C@H](Cc2ccccc2)NC(=O)[C@H](CCCCN)NC(=O)CNC(=O)[C@@H](NC(=O)CN)[C@@H](C)CC)C(=O)N[C@@H](C(C)C)C(=O)NCC(=O)N[C@@H](CCC(=O)O)C(=O)N1)C(=O)N[C@@H](CC(N)=O)C(=O)N[C@@H](CO)C(N)=O [Mag(i + 4)15(A9K), GIGKFLHSKKKFGKAXVGEXBNS] (H-GIGKFLHSKKKFGKA[S5]VGE[S5][Nle]NS-NH2; staple 16-20) | 3.1 µg/mL | >50 µg/mL | 1.9% | >50 µg/mL | 12.5 µg/mL |
| CCCC[C@H](NC(=O)[C@]1(C)CCCC=CCCC[C@](C)(NC(=O)[C@H](CCC(=O)O)NC(=O)[C@H](CCCCN)NC(=O)CNC(=O)[C@H](Cc2ccccc2)NC(=O)[C@H](CCCCN)NC(=O)[C@H](CCCCN)NC(=O)[C@H](C)NC(=O)[C@H](CO)NC(=O)[C@H](Cc2c[nH]cn2)NC(=O)[C@H](CC(C)C)NC(=O)[C@H](Cc2ccccc2)NC(=O)[C@H](CCCCN)NC(=O)CNC(=O)[C@@H](NC(=O)CN)[C@@H](C)CC)C(=O)N[C@@H](C(C)C)C(=O)NCC(=O)N[C@@H](CCC(=O)O)C(=O)N1)C(=O)N[C@@H](CC(N)=O)C(=O)N[C@@H](CO)C(N)=O [Mag(i + 4)15(A15E), GIGKFLHSAKKFGKEXVGEXBNS] (H-GIGKFLHSAKKFGKE[S5]VGE[S5][Nle]NS-NH2; staple 16-20) | 3.1 µg/mL | 25 µg/mL | 3.8% | 50 µg/mL | 25 µg/mL |
